Holding throughout (format): cell-based, human
The subject of test [1] is HL60 cells. As to the kind of experiment: Cell differentiation induction test, NBT reduction staining (differentiation into neutrophils). Particulars: for differentiation ratio (ratio of NBT-stained cells): after 10 days of culture. The method, then: (§1) To each well of a 6-well plate, 1 mL of HL60 cells were plated at a concentration of 5×10^4 cells/mL, and a test substance at five serial concentrations (a 10-fold dilution series ranging from 10%) was added to the well at the same time as the plating. The cells in the plate were cultured for 5 days or 10 days under 5% […] at 37° C. The cell suspension in each well was recovered by centrifugation, and the number of cells, the NBT reducing capacity, and the esterase activity of the recovered cells were measured. In addition, changes in the karyotype of each cell was observed by Carrazzi's hematoxylin staining. The ratio of stained cells in each sample was measured to evaluate the differentiation induction capacity. The test was carried out in 5 replicates (n=5). A sample without addition of the test substance, and 0.1% ethyl alcohol (solvent control for the positive control) were used as negative controls, and retinoic acid (dissolved in ethyl alcohol; final concentration, 1 μM) and active vitamin D3 (dissolved in ethyl alcohol; final concentration, 10 nM) were used as positive controls. Details of each staining method are described below.
The concentration of the recovered cells was adjusted to 1×10^6 cells/mL with RPMI 1640 medium (SIGMA, R8758, serum-free), and an equal volume of NBT solution (PBS supplemented with 0.2% NBT and 20% FBS, which was used after filtration) was added thereto. TPA was added to the resulting mixture to a final concentration of 6 μM, and the mixture was then stirred. Thereafter, the mixture was left to stand at 37° C. for 30 minutes, and centrifuged at 1000 rpm for 5 minutes, followed by discarding the supernatant. Subsequently, the cells were resuspended in PBS, and applied onto a slide glass, followed by counting cells stained blue under the microscope.

Test [2] has as its system HL60 cells. Description: Cytotoxicity test (mitochondrial activity level, counting of viable cells with WST-8). Particulars: 3 days of culture, FIG. 1. The method, then: HL60 cells were cultured using a test medium (RPMI 1640 medium, 10% FBS, antibiotic-free) to the logarithmic growth phase in a CO: incubator (5% Cq, 37° C.). 2) Cytotoxicity Test (Evaluation of the Toxicity Based on the Viability, that is, the Survival Rate or the Death Rate, of Cells) To each well of a 96-well plate, 0.1 mL of HL6O cells were plated at a concentration of 5×10^4 cells/mL, and a test substance (7 serial dilutions: a 10-fold dilution series ranging from 10%; the test substance was preliminarily sterilized by filtration) was added to the well at the same time. After 3 days of the culture, a viable cell assay reagent SF (final concentration, 10%) was added to the cell suspension culture liquid, and viable cells were counted. The test was carried out in 3 replicates (n=3). The viability of the cells was evaluated using a viable cell counting reagent SF (WST-8) based on measurement of the absorbance.

For test [3], the system named is HL60 cells. Description: DNA methylation level in HL60 cells. Conditions: 10 days of culture, FIG. 7.
Test [4] concerns HL60 cells. As to the kind of experiment: Cell differentiation induction test, esterase staining (differentiation into monocytes). Conditions: final concentration 1 μM. The method, then:
as §1
Esterase staining was carried out as follows using an esterase staining kit (manufactured by Muto Pure Chemicals Co., Ltd.). The concentration of the recovered cells was adjusted to 1×10^6 cells/mL with PBS. […]

Test [5] deals with HL60 cells. As to the kind of experiment: Counting of viable cells by trypan blue staining. Particulars: positive control; solvent control 1.0×10^−5% DMSO; 5 days of culture; FIG. 8. The method, then:
In each of T25 flasks, 5 mL of HL60 cells were seeded at 1×10^7 cells/flask. At the same time as the seeding, test substances (ethyl alcohol, retinoic acid, dimethyl sulfoxide, rotenone, SDW, and Examples 3 and 4) were fed to the flasks.
The addition of Example 3 to the medium was carried out after its sterilization by filtration. In Example 4, 10 mL of the test substance was warmed at 60° C. to evaporate the whole solvent, and 10 mL of sterile water was newly added thereto to dissolve the resultant. The resulting solution was sterilized by filtration, and then added to the medium. The retinoic acid to be added was provided as a concentrated solution containing retinoic acid at a concentration of 100 mM in ethyl alcohol, and the rotenone to be added was provided as a concentrated solution containing rotenone at a concentration of 100 mM in DMSO. […]
To 50 μL of a cell suspension culture liquid, 50 μL of a trypan blue solution was added, and the reaction was allowed to proceed for several minutes. Under the microscope, unstained cells and stained cells were counted using a hemocytometer. The number of dead cells (stained cells) per total number of cells was determined to calculate the number of live cells (cells/mL) and the dead cell ratio (%).

SMILES strings stand for the structures.

`C=C1/C(=C\C=C2/CCC[C@]3(C)[C@@H]([C@H](C)CCCC(C)(C)O)CC[C@@H]23)C[C@@H](O)C[C@@H]1O` [active vitamin D3, reference compound]: the “differentiation ratio (ratio of NBT-stained cells)” value in test [1] (final concentration 10 nM, decreased by half) is reported as 4%.
Regarding `O=c1c(O)c(-c2ccc(O)cc2)oc2cc(O)cc(O)c12` [kaempferol], the “differentiation ratio (ratio of NBT-stained cells)” value in test [1] (300 μg) is 3%. Further, the “differentiation ratios (NBT-stained cells) on Day 10 of the culture, change” value in test [1] (Day 10 of the culture, FIG. 4) is reported as “decreased”. Moreover, the “differentiation ratio (NBT-stained cells), trend” value in test [1] (after 5 days of culture, FIG. 3) was “concentration-dependent improvement”. The “mitochondrial activity (absorbance, viable cell count)” value in test [2] (concentration 0.1% (30 ng/mL=0.03 μg/mL) to 10% (300 μg/mL)) is listed as “increased”; in test [2] (concentration 3.2×10^−4% to 0.032%), “suppressed”. The “DNA methylation level in the HL60 cells” value was “increased” in test [3] (concentration 0.001%) and “decreased” in test [3] (concentration 10% (300 μg/mL)).
Regarding `CC1=C(/C=C/C(C)=C/C=C/C(C)=C/C(=O)O)C(C)(C)CCC1` [retinoic acid], the “differentiation ratio (ratio of NBT-stained cells)” value in test [1] (final concentration 1 μM) came out at 68%. Also, the “differentiation into monocytes (ratio of esterase-stained cells)” value is 2% in test [4] (Day 5 of the culture) and 14% in test [4] (Day 10 of the culture).
`C=C(C)[C@H]1Cc2c(ccc3c2O[C@@H]2COc4cc(OC)c(OC)cc4[C@@H]2C3=O)O1` [rotenone]: the “viable cell count by trypan blue staining versus solvent control” value in test [5] is “decreased to about half”.
